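Results reflect a 48-hour exposure of cells in 96-well plates to compound at five concentrations. TGI: concentration producing complete growth inhibition.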
Key:
Experiment in all cases: inhibition of tumour cell growth, NCI panel, 48 h
OVCAR-5 ovarian = test system: OVCAR-5 ovarian
A549 NSCLC = test system: A549 NSCLC
M19-MEL melanoma = test system: M19-MEL melanoma
HOP-62 NSCLC = test system: HOP-62 NSCLC
UACC-257 melanoma = test system: UACC-257 melanoma
786-0 renal = test system: 786-0 renal
SF-539 CNS = test system: SF-539 CNS
CAKI-1 renal = test system: CAKI-1 renal
SK-MEL-28 melanoma = test system: SK-MEL-28 melanoma
COLO 205 colon = test system: COLO 205 colon
LXFL 529 NSCLC = test system: LXFL 529 NSCLC
UO-31 renal = test system: UO-31 renal
RXF 393 renal = test system: RXF 393 renal
SNB-19 CNS = test system: SNB-19 CNS
HL-60(TB) leukemia = test system: HL-60(TB) leukemia
KM12 colon = test system: KM12 colon
XF 498 CNS = test system: XF 498 CNS
OVCAR-3 ovarian = test system: OVCAR-3 ovarian
HCT-15 colon = test system: HCT-15 colon
TK-10 renal = test system: TK-10 renal
LOX IMVI melanoma = test system: LOX IMVI melanoma
K-562 leukemia = test system: K-562 leukemia
SNB-78 CNS = test system: SNB-78 CNS
RPMI-8226 leukemia = test system: RPMI-8226 leukemia
KM20L2 colon = test system: KM20L2 colon
HOP-92 NSCLC = test system: HOP-92 NSCLC
SK-MEL-5 melanoma = test system: SK-MEL-5 melanoma
HCT-116 colon = test system: HCT-116 colon
A498 renal = test system: A498 renal
SF-295 CNS = test system: SF-295 CNS
HCC-2998 colon = test system: HCC-2998 colon
M14 melanoma = test system: M14 melanoma
SK-OV-3 ovarian = test system: SK-OV-3 ovarian
DMS 114 small cell lung = test system: DMS 114 small cell lung
SN12C renal = test system: SN12C renal
SNB-75 CNS = test system: SNB-75 CNS
U251 CNS = test system: U251 CNS
UACC-62 melanoma = test system: UACC-62 melanoma
NCI-H522 lung = test system: NCI-H522 lung
OVCAR-4 ovarian = test system: OVCAR-4 ovarian
SW-620 colon = test system: SW-620 colon
NCI-H23 lung = test system: NCI-H23 lung
MALME-3M melanoma = test system: MALME-3M melanoma
CCRF-CEM leukemia = test system: CCRF-CEM leukemia
IGROV1 ovarian = test system: IGROV1 ovarian
ACHN renal = test system: ACHN renal
HT29 colon = test system: HT29 colon
NCI-H226 lung = test system: NCI-H226 lung
EKVX NSCLC = test system: EKVX NSCLC
MOLT-4 leukemia = test system: MOLT-4 leukemia
DLD-1 colon = test system: DLD-1 colon
SF-268 CNS = test system: SF-268 CNS
SR leukemia = test system: SR leukemia
NCI-H460 lung = test system: NCI-H460 lung
DMS 273 small cell lung = test system: DMS 273 small cell lung
SK-MEL-2 melanoma = test system: SK-MEL-2 melanoma
OVCAR-8 ovarian = test system: OVCAR-8 ovarian

Measured: TGI

O=C1NC2C(=O)N(Cc3ccccc3)C(=O)C2N1 (centres undefined)
not listed: DMS 273 small cell lung | SK-MEL-2 melanoma | OVCAR-8 ovarian
> 100 µM: all other assays above

COc1ccc(-c2cc(=O)c3c(OC)cccc3o2)c(OC)c1OC
74.4 µM: SNB-75 CNS
not listed: UO-31 renal | SNB-19 CNS | XF 498 CNS | EKVX NSCLC
> 100 µM: all other assays above

O=C(Cn1ccnc1[N+](=O)[O-])c1ccccc1
not listed: SNB-78 CNS | HCT-116 colon | DMS 114 small cell lung | U251 CNS | SR leukemia
> 100 µM: all other assays above

— PubChem BioAssay (NCI)
